Results on 1 molecule are retold here after US20170182031A1, “REDUCING DRUG LIKING IN A SUBJECT” (Purdue Pharma, priority 2014, published 2017).

The conditions of data set [1]: cited from earlier work.

Read-outs that look alike come from different tables or passages of the source.

For `C=CCN1CC[C@]23c4c5ccc(O)c4O[C@H]2C(=O)CC[C@@]3(O)[C@H]1C5` [naloxone], the oral bioavailability in data set [1] is listed as less than 3%. The “Time by which mean plasma naloxone concentration was BLQ” value is not above 15 min (naloxone 1.875 μg/kg IV) and not above 120 min (naloxone 15 μg/kg IV). Under “post-infusion, each treatment”, the “Time of maximum mean plasma naloxone concentration” value was determined as 5 min.
